The values that follow come from patent publication US10981872B1, “Di(2-aryl hydrozonopropanal) arene derivatives” (King Abdulaziz University, priority 2020, dated 2021).

As usually defined, the IC50 is the concentration that gives 50% inhibition.

SMILES strings stand for the structures. Read-outs that look alike come from different tables or passages of the source.

Data set [1] has as its system human colon carcinoma HCT-116 cells. Kind of data set: MTT cell viability assay, HCT-116. It is filed as cell-based. As to the method:
(§1) Human alveolar basal epithelial cell line (A-549) and human colon carcinoma (HCT-116), purchased from ATCC, USA, were used to evaluate the anticancer properties of the compounds. Cells were routinely cultured in RPMI (Roswell Park Memorial Institute Medium), except HCT-116 cells which were cultured in McCoy's medium. All media were supplemented with 10% fetal bovine serum (FBS), 2 mM L-glutamine, 100 units/ml penicillin G sodium, 100 units/ml streptomycin sulphate, and 250 ng/ml amphotericin B. Cells were maintained at sub-confluency at 37° C. in humidified air containing 5% CO2. For sub-culturing, monolayer cells were harvested after trypsin/EDTA treatment at 37° C. Cells were used when confluence had reached 75%. Tested samples were dissolved in dimethyl sulphoxide (DMSO), and then diluted in the assay to begin with the indicated concentration. All cell culture material was obtained from Cambrex BioScience (Copenhagen, Denmark). All chemicals were from Sigma/Aldrich, USA, unless otherwise indicated. All experiments were repeated three times, unless otherwise indicated.
Cytotoxicity of tested samples was measured against different cancer cells using the MTT Cell Viability Assay. The 3-[4,5-dimethylthiazole-2-yl]-2,5-diphenyltetrazolium bromide (MTT) assay is based on the ability of an active mitochondrial dehydrogenase enzyme of living cells to cleave the tetrazolium rings of the yellow MTT and form dark blue insoluble formazan crystals which are largely impermeable to cell membranes, resulting in its accumulation within healthy cells. Dissolution of the cells results in the liberation of crystals, which are then solubilized. The number of viable cells is directly proportional to the level of soluble formazan dark blue color. The extent of the reduction of MTT was quantified by measuring the absorbance at 570 nm.
MTT solution: 5 mg/ml of MTT in 0.9% NaCl.
Acidified isopropanol: 0.04 N HCl in absolute isopropanol.
Cells (0.5×10^5 cells/well), in serum-free media, were plated in a flat bottom 96-well microplate, and treated with 20 μl of different concentrations of the tested samples for 48 h at 37° C., in a humidified 5% CO2 atmosphere. After incubation, media was removed and 40 μl MTT solution/well were added and the cells were incubated for an additional 4 h. MTT crystals were solubilized by adding 180 μl of acidified isopropanol/well and plates were kept at room temperature, followed by photometric determination of the absorbance at 570 nm using a microplate ELISA reader. Triplicate repeats were performed for each concentration and the average was calculated. Data were expressed as the percentage of relative viability compared with the untreated cells compared with the vehicle control, with cytotoxicity indicated by <100% relative viability
The percentage of relative viability was calculated using the following equation: [Absorbance of treated cells/Absorbance of control cells)]×100 Then the half maximal inhibitory concentration (IC50) was calculated from the equation of the concentration vs % of viability curve. Results and Discussion

Data set [2] is described as follows: MTT cell viability assay, A-549. Format: cell-based, human. The settings on record: compared to the tumor cell line HCT116. Here is the method: as §1, with “Tested samples were dissolved in dimethyl sulphoxide (DMSO), and then diluted in the assay to begin with the indicated concentration. All cell culture material was obtained from Cambrex BioScience (Copenhagen, Denmark). All chemicals were from Sigma/Aldrich, USA, unless otherwise indicated. All experiments were repeated three times, unless otherwise indicated.” left out
(§2) Cytotoxicity of tested samples was measured against different cancer cells using the MTT Cell Viability Assay. […] The extent of the reduction of MTT was quantified by measuring the absorbance at 570 nm. […]
(§3) Cells (0.5×10^5 cells/well), in serum-free media, were plated in a flat bottom 96-well microplate, and treated with 20 μl of different concentrations of the tested samples for 48 h at 37° C., in a humidified 5% CO2 atmosphere. […] MTT crystals were solubilized by adding 180 μl of acidified isopropanol/well and plates were kept at room temperature, followed by photometric determination of the absorbance at 570 nm using a microplate ELISA reader. […]
(Formazan colour is commonly taken as a measure of viable cells.)

Data set [3] concerns normal human alveolar basal epithelial cell line (A-549). Kind of data set: MTT cell viability assay, A-549. It is filed as cell-based. Particulars: A-549 versus HCT116. Here is the method:
as §1, with “Tested samples were dissolved in dimethyl sulphoxide (DMSO), and then diluted in the assay to begin with the indicated concentration. All cell culture material was obtained from Cambrex BioScience (Copenhagen, Denmark). All chemicals were from Sigma/Aldrich, USA, unless otherwise indicated. All experiments were repeated three times, unless otherwise indicated.” left out
as §2, §3

The mark [4] stands for this setting: Homo sapiens, HCT-116, 48 h treatment, read-out: IC50 against the colon cancer cell line HCT 116.

With `Cc1ccc(NN=C(C=O)C(=O)c2ccc(C(=O)/C(C=O)=N/Nc3ccc(C)cc3)cc2)cc1` [Compound 9a], the IC50 in data set [1] (48 h treatment, read-out: IC50 against the colon cancer cell line HCT 116) came out at 126 nM.

As to `N#Cc1ccccc1N/N=C(/C=O)C(=O)c1ccc(C(=O)/C(C=O)=N/Nc2ccccc2C#N)cc1` [Compound 9b, 2-(2-((E)-1-(4-((Z)-2-(2-(2-cyanophenyl)hydrazineylidene)-3-oxopropanoyl)phenyl)-1,3-dioxopropan-2-ylidene)hydrazineyl)benzonitrile], the half-inhibitory concentration (IC50) in data set [1] (setting [4]) came to 299 nM.

Consider `Cc1ccc(N/N=C(\C=O)C(=O)c2cccc(C(=O)/C(C=O)=N/Nc3ccc(C)cc3)n2)cc1` [Compound 11a, (2E,2′E)-3,3′-(pyridine-2,6-diyl)bis(3-oxo-2-(2-(p-tolyl)hydrazineylidene)propanal)], for which the 50% inhibitory concentration (IC50) in data set [1] (setting [4]) turned out to be 277 nM.

For `N#Cc1ccccc1N/N=C(\C=O)C(=O)c1cccc(C(=O)/C(C=O)=N/Nc2ccccc2C#N)n1` [Compound 11b, 2,2′-(((2E,2′E)-pyridine-2,6-diylbis(1,3-dioxopropan-1-yl-2-ylidene))bis(hydrazin-1-yl-2-ylidene))dibenzonitrile], the half-inhibitory concentration (IC50) is 98 nM in data set [1] (setting [4]) and 98 ± 30 nM in data set [1] (Homo sapiens, HCT-116, 48 h treatment, read-out: IC50 for HCT116 cancer cells). Also, the “Cytotoxic effects on the normal, non-tumorigenic A-549 cell line” value in data set [2] is given as “only weak cytotoxic effects”. Also, in data set [3], the Selectivity index entry is given as “excellent selectivity index”.

With `COc1cccc2c1C(=O)c1c(O)c3c(c(O)c1C2=O)C[C@@](O)(C(=O)CO)C[C@@H]3O[C@H]1C[C@H](N)[C@H](O)[C@H](C)O1` [Doxorubicin, reference compound], the concentration for half-maximal inhibition (IC50) in data set [1] (setting [4]) is 126 nM.
